In ChEMBL document CHEMBL6103644, “Efficient and Selective Biosynthesis of a Precursor-Directed FK506 Analogue: Paving the Way for Click Chemistry” (J Nat Prod, 2025) one finds Activity and inhibition data, which are given here for two compounds.

Data set [1] in a line: Cytotoxicity against C57BL/6 mouse CD4+ T cells assessed as increase in cell death at >10 nM incubated for 4 days by Live/Dead staining based flow cytometry. The data set is classed as toxicity. The settings on record: 96 h, 0.01 µM, time 4 day. On the technique in general: Flow cytometry measures light scatter and fluorescence of single cells or particles in a stream.
Data set [2] in a line: Cytotoxicity against C57BL/6 mouse CD4+ T cells assessed as increase in cell death at 5 nM incubated for 4 days by Live/Dead staining based flow cytometry. The data set is classed as toxicity. The settings on record: 96 h, 0.005 µM, time 4 day.
For data set [3], the system named is CD4+ T cell. In words: Immunosuppressive activity in C57BL/6 mouse CD4+ T cells co-cultured with allogeneic bone marrow-derived BALB/c mouse dendritic cells assessed as reduction in CD4+ T cell numbers at cell cycle 4 at 5 nM incubated for 4 days by CellTrace Violet staining based flow cytometry. It counts as functional. The settings on record: time 4.0 day.

Data set [4] in a line: Cytotoxicity against C57BL/6 mouse CD4+ T cells assessed as increase in cell death at 0.5 to 100 nM incubated for 4 days by Live/Dead staining based flow cytometry. It counts as toxicity. The settings on record: 96 h, 0.1 µM, dose 0.5-100 nM, time 4 day.
Data set [5] has as its system CD4+ T cell. The experiment in a line: Immunosuppressive activity in C57BL/6 mouse CD4+ T cells co-cultured with allogeneic bone marrow-derived BALB/c mouse dendritic cells assessed as inhibition of CD4+ T cell proliferation at 1 nM incubated for 4 days by CellTrace Violet staining based flow cytometry. The data set is classed as functional. The settings on record: time 4.0 day.

Molecules are shown by their SMILES. Active and inactive are the calls of the source. The rule behind the calls is not given here.

Take `C#CC[C@@H]1/C=C(\C)C[C@H](C)C[C@H](OC)[C@H]2O[C@@](O)(C(=O)C(=O)N3CCCC[C@H]3C(=O)O[C@H](/C(C)=C/[C@@H]3CC[C@@H](O)[C@H](OC)C3)[C@H](C)[C@@H](O)CC1=O)[C@H](C)C[C@@H]2OC`: the results for the Activity entry in data set [1] and in data set [2] were “Toxic” and “Non-toxic”, respectively. For the same compound, in data set [3], the result was Active.

In the case of `C=CC[C@@H]1/C=C(\C)C[C@H](C)C[C@H](OC)[C@H]2O[C@@](O)(C(=O)C(=O)N3CCCC[C@H]3C(=O)O[C@H](/C(C)=C/[C@@H]3CC[C@@H](O)[C@H](OC)C3)[C@H](C)[C@@H](O)CC1=O)[C@H](C)C[C@@H]2OC` [TACROLIMUS ANHYDROUS], the Activity entry in data set [4] is “Toxic”. In data set [5], the inhibition result is “Active”.
